ChEMBL document CHEMBL3301361, “Experimental in vitro DMPK and physicochemical data on a set of publicly disclosed compounds”

Legend:
in vitro [1] = settings: human
in vitro [2] = settings: hepatocytes
physchem = settings: octan-1-ol/water

| Structure (SMILES) | microsomal CLint (in vitro [1]; microsomes) | hepatocyte CLint (in vitro [2]) | logD (physchem; pH 7.4, LogD7.4) | microsomal CLint (in vitro [1]; liver microsomes) | logD (physchem; pH 7.4) |
| --- | --- | --- | --- | --- | --- |
| O=C(Nc1cc(-c2ccnc(Nc3ccc(F)cc3)c2)ccn1)C1CCOCC1 | 6.03 µL/min/mg | > 150 µL/min/1e6 cells | – | – | – |
| N#Cc1cnc(N2CCN(C(=O)[C@@H]3CCCC[C@H]3C(=O)NC3(C#N)CC3)CC2)s1 | 6.76 µL/min/mg | 5.25 µL/min/1e6 cells | – | – | – |
| N#CC1(NC(=O)[C@@H]2CCCC[C@H]2C(=O)N2CCN(c3nc4ccncc4s3)CC2)CC1 | 17.8 µL/min/mg | 6.61 µL/min/1e6 cells | – | – | – |
| Cc1cc(OCC(=O)NCc2ccccc2)c2cc(Br)ccc2n1 | 126 µL/min/mg | 51.3 µL/min/1e6 cells | – | – | – |
| COc1ccc2nc(C)cc(OCC(=O)NCc3ccccc3)c2c1 | – | 120 µL/min/1e6 cells | 3.2 | > 150 µL/min/mg | – |
| Cc1cc(OCC(=O)Nc2ccccc2)c2cc(Br)ccc2n1 | 123 µL/min/mg | > 150 µL/min/1e6 cells | – | – | – |
| COc1cc(Nc2nc3c(cc2F)ncn3[C@@H](CO)c2ccc(F)cn2)n[nH]1 | 7.24 µL/min/mg | 27.5 µL/min/1e6 cells | 2.18 | – | – |
| CNC(=O)c1nc(-c2ccc(Cl)c(S(=O)(=O)Nc3cccc(F)c3F)c2)cnc1N | – | 19.9 µL/min/1e6 cells | 2.8 | 51.3 µL/min/mg | – |
| Nc1ncnc2c1ncn2[C@@H]1O[C@H](CSCCCNC(=O)Nc2ccccc2)[C@@H](O)[C@H]1O | 9.77 µL/min/mg | 28.2 µL/min/1e6 cells | 1.9 | – | – |
| Nc1nnc(CCSCCc2nnc(NC(=O)Cc3ccccc3)s2)s1 | – | 72.4 µL/min/1e6 cells | – | 55 µL/min/mg | – |
| COc1ccc(C#Cc2ccc([C@@H]3[C@H](CO)N4CCCCN(C(=O)Nc5cccc(F)c5)C[C@@H]34)cc2)cc1 | 50.1 µL/min/mg | 18.2 µL/min/1e6 cells | – | – | – |
| Cc1cc2cc(C)c3nnc(SCC(=O)N4CCN(C(=O)c5ccco5)CC4)n3c2cc1C | – | 57.5 µL/min/1e6 cells | 2.8 | > 150 µL/min/mg | – |
| COc1ccc(CC(=O)NC(NC(=NC#N)Nc2ccccc2C)C(C)(C)C)cc1OC (centres undefined) | – | 26 µL/min/1e6 cells | 2.48 | > 150 µL/min/mg | – |
| Oc1nc2c(O)ccc(CCNCCCCCCOCCc3ccccc3)c2s1 | 29 µL/min/mg | 88 µL/min/1e6 cells | 2.21 | – | – |
| COc1ccc(-c2nc3ccccc3c(=O)[nH]2)cc1 | – | > 150 µL/min/1e6 cells | – | > 150 µL/min/mg | – |
| CCN(CC)c1ccc2cc(C(C)=O)c(=O)oc2c1 | – | > 150 µL/min/1e6 cells | 2 | 120 µL/min/mg | – |
| COc1nc(N)nc2c1ncn2[C@@H]1O[C@H](CO)[C@@H](O)[C@H]1O | 42.7 µL/min/mg | 10.5 µL/min/1e6 cells | – | – | -0.58 |
| CCOC(=O)c1c(-c2ccccc2)nc2ccc(C)cn12 | > 150 µL/min/mg | 126 µL/min/1e6 cells | – | – | – |

| Structure (SMILES) | microsomal CLint (in vitro [1]; microsomes) | hepatocyte CLint (in vitro [2]) | logD (physchem; pH 7.4, LogD7.4) | microsomal CLint (in vitro [1]; liver microsomes) | logD (physchem; pH 7.4) |
| --- | --- | --- | --- | --- | --- |
| COc1ccc(N(C(C)=O)C(C(=O)NC2CCCC2)c2ccccc2F)c(OC)c1 (centres undefined) | – | > 150 µL/min/1e6 cells | – | > 150 µL/min/mg | – |
| COc1ccc(N(C(=O)c2ccco2)C(C(=O)NC2CCCC2)c2ccccc2F)c(OC)c1 (centres undefined) | – | > 150 µL/min/1e6 cells | – | > 150 µL/min/mg | – |
| CC1(C)[C@@H]2CC[C@@]1(CS(=O)(=O)N1CCN(c3ccc(C#N)cn3)CC1)C(=O)C2 | – | > 150 µL/min/1e6 cells | 2.46 | 103 µL/min/mg | – |
| COc1cc2c(Nc3ccc(F)c(Cl)c3)c(C(N)=O)cnc2cc1OCCN(C)CCO | – | 12.6 µL/min/1e6 cells | 3.2 | 27.5 µL/min/mg | – |
| O=C(Nc1cccc(CCO)c1)c1cc2cc(Cl)ccc2[nH]1 | – | > 150 µL/min/1e6 cells | 3.83 | 10 µL/min/mg | – |
| O=C(NCC12CC3CC(CC(C3)C1)C2)c1c(Cl)ccc2nc(N3CCC[C@H](NCCc4nnn[nH]4)C3)ccc12 | – | 13 µL/min/1e6 cells | 3.08 | 15 µL/min/mg | – |
| N#Cc1cccc(NCC(=O)Nc2c(Cl)ccc3nc(N4CC[C@@H](O)C4)ccc23)c1 | 30 µL/min/mg | 8 µL/min/1e6 cells | 2.39 | – | – |
| Cn1c(=O)c(-c2c(Cl)cccc2Cl)cc2cnc(Nc3ccc(F)cc3)nc21 | 132 µL/min/mg | 6.17 µL/min/1e6 cells | – | – | – |
| Cc1cnc(Nc2ccc(F)cc2Cl)nc1-c1c[nH]c(C(=O)N[C@H](CO)c2cccc(Cl)c2)c1 | 25.1 µL/min/mg | 12.9 µL/min/1e6 cells | – | – | – |
| CCn1c(SCC(=O)Nc2cccc(C)c2)nnc1-c1ccccc1 | > 150 µL/min/mg | > 150 µL/min/1e6 cells | – | – | – |
| Cc1cc(NS(=O)(=O)c2ccc(Cl)cc2)no1 | < 3 µL/min/mg | 8.51 µL/min/1e6 cells | – | – | – |
| O=CN(O)CCCP(=O)(O)O [FOSMIDOMYCIN] | – | < 3 µL/min/1e6 cells | – | 3.02 µL/min/mg | – |
| Cc1ccc2c(NC[C@](O)(CC(C)(C)c3cc(F)cc4c3OCC4)C(F)(F)F)cccc2n1 [MAPRACORAT] | – | 50.1 µL/min/1e6 cells | – | > 150 µL/min/mg | – |
| CC(C(=O)O)c1ccc(C(=O)c2cccs2)cc1 (centres undefined) [SUPROFEN] | < 3 µL/min/mg | 16 µL/min/1e6 cells | – | – | – |
| C[C@@H](O)[C@H]1C(=O)N2C(C(=O)OCOC(=O)C(C)(C)C)=C(SC3CN(C4=NCCS4)C3)[C@H](C)[C@H]12 [TEBIPENEM PIVOXIL] | – | > 150 µL/min/1e6 cells | – | > 150 µL/min/mg | – |
| C[C@@H](O)[C@H]1C(=O)N2C(C(=O)O)=C(SC3CN(C4=NCCS4)C3)[C@H](C)[C@H]12 [TEBIPENEM] | – | 4.79 µL/min/1e6 cells | – | 23.4 µL/min/mg | – |
| CC1Sc2c(C(=O)O)c(=O)c3cc(F)c(N4CCNCC4)cc3n21 (centres undefined) [ULIFLOXACIN] | – | < 3 µL/min/1e6 cells | – | 13.8 µL/min/mg | – |
